Data reported in US20070049627A1, “Treating vulvodynia using prodrugs of GABA analogs” (priority 2005, published 2007).
Where two headings read alike, the source gives them in different places.

Legend:
[1] = Randomized, crossover, fed/fasted single-dose pharmacokinetic study of oral sustained release tablets of compound (3); assay type: in vivo, human; conditions: for AUC of compound (3) in blood as percent of corresponding AUC of gabapentin in blood / maximum intact compound (3) concentration as percent of corresponding peak gabapentin concentration: sustained release tablets oral
Protocol: A randomized, crossover, fed/fasted single-dose study of the safety, tolerability, and pharmacokinetics of oral administration of 1-{[(α-isobutanoyloxyethoxy)carbonyl]aminomethyl}-1-cyclohexane acetic acid (3) in healthy adult subjects was conducted. The oral sustained release dosage form of Example 6 was used in this study. The study was designed to evaluate the performance of this formulation in humans in comparison with the commercial gabapentin capsule formulation (Neurontin®, Pfizer). Twelve healthy adult volunteers (7 males and 5 females) participated in the study. Mean body weight was 75.6 kg. All subjects received two different treatments in a random order with a one-week washout between treatments. The two treatments were: (A) a single oral dose of Example 1 tablets (2×600 mg) after an overnight fast; and (B) a single oral dose of Example 1 tablets (2×600 mg) after a high fat breakfast.
Blood and plasma samples were collected from all subjects prior to dosing, and at 0.5, 1, 1.5, 2, 3, 4, 6, 8, 12, 18, 24, and 36 hours after dosing. Urine samples were collected from all subjects prior to dosing, and complete urine output was obtained at the 0-4 h, 4-8 h, 8-12 h, 12-18 h, 18-24 h, and 24-36 h intervals after dosing. Blood samples were quenched immediately with methanol and stored frozen at […]. Sample aliquots were prepared for analysis of gabapentin and compound (3) using sensitive and specific LC/MS/MS methods.

[2] = in vivo, po
[3] = typical value used for comparison; cited from earlier work
[4] = tested on: patients suffering from chronic vulvar pain; conditions: increasing amounts of gabapentin over 12 weeks, cited from earlier work
[5] = Tmax of immediate release formulations following oral administration; conditions: in vivo
[6] = sustained release tablets 2×600 mg oral, fasted subjects
[7] = sustained release tablets 2×600 mg oral, fed subjects

Row | SMILES | Cmax of gabapentin in blood ([1]; healthy adults, single oral dose sustained release tablets 2×600 mg, after a high fat breakfast) [ng/mL] | mean±SD Cmax for gabapentin in blood ([1]; healthy adults, single oral dose sustained release tablets 2×600 mg, fasted) [ng/mL] | AUC of gabapentin in blood ([1]; healthy adults, sustained release tablets 2×600 mg oral, after a high fat breakfast) [ng·h/mL] | mean±SD AUC for gabapentin in blood ([1]; healthy adults, sustained release tablets 2×600 mg oral, fasted) [ng·h/mL] | apparent terminal elimination half-life for gabapentin in blood [1, 6] [h] | gabapentin Tmax (time to peak blood levels) [1, 6] [h] | percent of the gabapentin dose recovered in urine [1, 6] [%] | apparent terminal elimination half-life for gabapentin in blood [1, 7] [h] | percent of the gabapentin dose recovered in urine [1, 7] [%] | increase of exposure to gabapentin in the presence of food compared to fasted subjects ([1]; sustained release tablets 2×600 mg oral, fed vs fasted) [%] | gabapentin Tmax (time to peak blood levels) ([1]; sustained release tablets 2×600 mg oral, in the presence of food) [h] | AUC of compound (3) in blood as percent of corresponding AUC of gabapentin in blood ([1]; fasted subjects) [%] | maximum intact compound (3) concentration as percent of corresponding peak gabapentin concentration ([1]; fasted subjects) | AUC of compound (3) in blood as percent of corresponding AUC of gabapentin in blood ([1]; fed subjects) [%] | maximum intact compound (3) concentration as percent of corresponding peak gabapentin concentration ([1]; fed subjects) | Tmax [2] [h] | typical Tmax of immediate release gabapentin [3] [h] | patients with partial or complete relief of vulvar pain symptoms ([4]; amitriptyline non-responders) | patients reporting side effects such as headaches, nausea, vomiting, fatigue, and dizziness [4] | Tmax [5] [h]
1 | CC(OC(=O)NCC1(CC(=O)O)CCCCC1)OC(=O)C(C)C (stereo not drawn) [compound (3), 1-{[(α-Isobutanoyloxyethoxy)carbonyl]aminomethyl}-1-Cyclohexane Acetic Acid] | 6240 ± 1550 | 4210 ± 1150 | 83000 ± 21800 | 54500 ± 12200 | 6.47 ± 0.77 | 5.08 ± 1.62 | 46.5±15.8 | 5.38 ± 0.80 | 73.7±7.2 | 52 | 8.40 ± 2.07 | 0.3 | approximately 1.0% | < 0.1 | approximately 0.3% | 2 to 2.6 | – | – | – | –
2 | NCC1(CC(=O)O)CCCCC1 [gabapentin] | – | – | – | – | – | – | – | – | – | – | – | – | – | – | – | – | 2 to 4 | Eighty-two | over half the patients | 2.8 to 3.3
